# Data: patent US5559152A, “Pharmaceutical composition having antiacoholic activity” (priority 1994, dated 1996)
# Read-outs that look alike come from different tables or passages of the source.
# Assays:
# [1] = tested on: stomach secretion in patients suffering chronic gastritis with pentagastrinrefractive achlorhydria; assay: stomach secretion in patients with pentagastrinrefractive achlorhydria; format: in vivo, human; conditions: stimulated secretion; M ± m
# Protocol: Additionally intrastomach pH-metry was carried out (on an empty stomach and after taking the present composition or comparative preparations) using acidograph with aspiratory pH probe. Before introducing the present composition and comparative preparations and after that pH levels were registered and "alkaline time" was determined using Noller test. Having deciphered pH-gramms, pH levels, "alkaline time" (AT), hydrogen ions secretion rate (HISR), kinetic function of acid formation (KFA) were determined.
# The effect of the present composition on stomach secretion in patients of this group has been studied.
# [2] = tested on: stomach secretion in patients suffering chronic gastritis; assay: comparative study of pentagastrin and present composition in patients suffering chronic gastritis; format: in vivo, human
# Protocol: With intragastric pH-metry initial levels of pH in these patients varied from 3.5 to 6.8, and after Noller test these levels increased to alkaline values (8-9) which levels remained the same during the test period (1-1.5 hours).
# [3] = tested on: stomach secretion in patients suffering chronic gastritis accompanied by stomach and duodenum ulcers; assay: stomach secretion in patients with chronic gastritis accompanied by stomach and duodenum ulcers, pentagastrin after present composition; format: in vivo, human
# Protocol: The diagnoses were verified on the basis of all presently used methods for diagnosing gastroenterological diseases. […] Additionally intrastomach pH-metry was carried out (on an empty stomach and after taking the present composition or comparative preparations) using acidograph with aspiratory pH probe. Before introducing the present composition and comparative preparations and after that pH levels were registered and "alkaline time" was determined using Noller test. Having deciphered pH-gramms, pH levels, "alkaline time" (AT), hydrogen ions secretion rate (HISR), kinetic function of acid formation (KFA) were determined.
# [4] = tested on: patients; conditions: background; cited from earlier work
# [5] = tested on: stomach mucosa
# Protocol: The diagnoses were verified on the basis of all presently used methods for diagnosing gastroenterological diseases. […] Pentagastrin in the dosage of 6 μg/kg of body weight and histamine in the dosage of 0.1 ml of 0.1% solution were used as comparative preparations. […] Having deciphered pH-gramms, pH levels, "alkaline time" (AT), hydrogen ions secretion rate (HISR), kinetic function of acid formation (KFA) were determined.
# For this purpose the characteristics of stomach acid-forming function were studied in these volunteers after administering said preparations in different sequences.
# [6] = tested on: stomach mucosa; conditions: 3.6 mg/kg, dogs
# [7] = tested on: stomach mucosa; conditions: mice, 3.5 mg/kg intrastomach, 35-45 min; M ± m
# Protocol: (§1) Stomachs were washed with water through cardiac opening and the washing from the antral opening were collected. Stomach contents (5 ml of washings) were used to determine pH, pepsin and total protein content. Stomach was refilled with water, frozen in cryostate and serial section having the thickness of 6-8 microns were made beginning from low curvature and parallel to stomach longer axis. In the sections of stomach bottom and body having a total weight of 50-90 mg, protein and nucleic acids content was determined.
# [8] = tested on: stomach and liver tissues; conditions: in 100 mg of tissue; 3.5 mg/kg; M ± m
# Protocol: as §1
# [9] = tested on: succinate dehydrogenase; conditions: mice; 4 mg/kg intrastomach, 40 min; M ± m
# [10] = tested on: rats subjected to gamma-irradiation; conditions: rodents; cited from earlier work
# [11] = tested on: rats (acute alcohol intoxication)
# [12] = tested on: rats subjected to gamma-irradiation; conditions: 16 Gy, 100 mg/kg i.p. 30 min before irradiation
# Protocol: This preparation was given i.p. to a group of 10 animals 30 min. before the irradiation in the dosage of 100 mg/kg of animal weight.
# [13] = stimulated secretion, pentagastrin a day after present composition, M ± m
# [14] = histamine stimulated secretion, an hour after present composition
# [15] = secretion in 1 h after histamine injection
# [16] = secretion in interval between stimulators (after histamine)
smiles,measurement,setting,value
CSCC[C@H](NC(=O)[C@H](Cc1c[nH]c2ccccc12)NC(=O)CCNC(=O)OC(C)(C)C)C(=O)N[C@@H](CC(=O)O)C(=O)N[C@@H](Cc1ccccc1)C(N)=O [pentagastrin],Acid secretion,[1],15.25 ± 0.86%
same,Acidity,[1],0 ± 0 mmol per liter
same,Hydrochloric acid debit,[1],0 ± 0 mmol per hour
same,Pepsin content,[1],0 ± 0 mg per ml
same,Pepsin debit,[1],0 ± 0 mg per hour
same,Stomach contents volume,[1],0.067 ± 0.15 liter per hour
same,"acidity, pepsin content, hydrochloric acid debit and pepsin debit",[2]; 12 refractory patients,remained at zero levels
same,intragastric pH after stimulation,"[2]; 12 refractory patients, from 6.51±1.06, p<0.25",4.69±0.92
same,AT reduction in Noller test,"[2]; 12 refractory patients, p<0.5",did not cause AT reduction
same,patients refractory,"[2]; chronic gastritis, pentagastrin 6 μg/kg",12 of 50
same,"effect on stomach secretion, comparison of the both preparations","[2]; patients suffering chronic gastritis, p<0.5",nearly the same effect on stomach secretion
same,"effect on stomach secretion, comparison of the both preparations","[3]; chronic gastritis accompanying stomach and duodenum ulcers, p<0.5",nearly the same effect on stomach secretion
same,effects when present composition administered in a week after pentagastrin,[3]; p<0.5,nearly identical
same,Pepsin debit,"[3]; stimulated secretion, pentagastrin a day after present composition, M ±",5.0 ± 1.05 mg/h
same,Hydrochloric acid debit,[3]; [13],17 ± 1.44 mmol/h
same,Secretion volume,[3]; [13],178 ± 12.7 mL
same,pH,[3]; [13],1.4 ± 0.14
NCCc1c[nH]cn1 [histamine],complications / side effects,[4],"nettle-rash,larynx edema, anaphylactic shock"
same,"effects on stomach acid-forming function (duration and intensity), present composition versus histamine",[5]; Tables 23 and 24,identical effects on stomach acid-forming function
same,Free hydrochloric acid,"[5]; histamine secretion, M ± m",6.5 ± 0.27 meq./liter
same,Total hydrochloric acid,"[5]; histamine secretion, M ± m",8.00 ± 0.29 meq./liter
same,Free hydrochloric acid,[5]; [14],3.90 ± 0.11 meq/liter
same,Total hydrochloric acid,[5]; [14],4.70 ± 0.12 meq/liter
same,Free hydrochloric acid,[5]; [15],6.92 ± 0.73 meq/liter
same,Total hydrochloric acid,[5]; [15],4.6 ± 0.5 meq/liter
same,Free hydrochloric acid,[5]; [16],15.3 ± 1.4 meq./liter
same,Total hydrochloric acid,[5]; [16],15.8 ± 1.6 meq./liter
O=C(O)CCC(=O)O [succinic acid],time after introduction at which effect on stomach secretion abated,[6],20 min
same,stimulation of stomach glands and fermentative activity,[6]; versus present composition,less expressed results
same,Pepsin amount in stomach contents,[7],18.7 ± 2.1 µg
same,Total protein amount in stomach contents,[7],3.9 ± 0.9 mg
same,pH of stomach contents,[7],5.7 ± 0.2
same,Liver DNA content,[8],15.6 ± 2.7 µg
same,Liver RNA content,[8],74.5 ± 4.4 µg
same,Liver protein content,[8],14.4 ± 1.2 mg
same,Stomach DNA content,[8],13.1 ± 1.1 µg
same,Stomach RNA content,[8],70.0 ± 4.7 µg
same,Stomach protein content,[8],12.1 ± 0.9 mg
same,succinate dehydrogenase activity in liver,[9],21.8 ± 0.6 nanomoles of formazan of p-nit
same,succinate dehydrogenase activity in stomach,[9],26.3 ± 3.0 nanomoles of formazan of p-nit
same,succinate dehydrogenase activity of lymphocytes,[9],643. ± 5.1 granules of formazan of p-nitr
same,effective dosage (radioprotective),[10],2.7 g/kg of animal weight
same,"Duration of on-side position, single ethanol injection","[11]; 1.85 mg/kg intrastomach 40 min before 25% ethanol 3.5 g/kg i.p., M ± m",1.6 ± 1.1 min
same,"Duration of on-side position, repeated ethanol injection","[11]; 1.85 mg/kg intrastomach, second 25% ethanol 3 g/kg, 60 min after leaving on-side position, M ± m",24.9 ± 3.8 min
same,alcoprotective detoxifying activity compared,"[11]; after a single ethanol injection, versus claimed composition",higher alcoprotective detoxifying activity than the claimed composition
N[C@@H](CCC(=O)N[C@@H](CS)C(=O)NCC(=O)O)C(=O)O [glutathione],mortality,[12],100%
same,life-time of rats,[12]; control 6.9 days,10.2 days
